In ChEMBL document CHEMBL4033744, “Synthesis and biological evaluation of steroidal derivatives bearing a small ring as vitamin D receptor agonists” (Bioorg Med Chem Lett, 2017):
The source made the active and inactive calls. The rule behind the calls is not given here.

What was measured:
Assay type in all cases: cell-based
[1] = target: T1, Vitamin D3 receptor (Homo sapiens) (UniProt P11473); experiment: Agonist activity at vitamin D receptor (unknown origin) expressed in HEK293 cells co-expressing pCMX-RXRalpha and pCMX-beta-galactosidase assessed as induction of receptor transactivation incubated for 16 to 24 hrs by luciferase reporter gene assay relative to 3-keto-LCA
T1 sequence (whole entry): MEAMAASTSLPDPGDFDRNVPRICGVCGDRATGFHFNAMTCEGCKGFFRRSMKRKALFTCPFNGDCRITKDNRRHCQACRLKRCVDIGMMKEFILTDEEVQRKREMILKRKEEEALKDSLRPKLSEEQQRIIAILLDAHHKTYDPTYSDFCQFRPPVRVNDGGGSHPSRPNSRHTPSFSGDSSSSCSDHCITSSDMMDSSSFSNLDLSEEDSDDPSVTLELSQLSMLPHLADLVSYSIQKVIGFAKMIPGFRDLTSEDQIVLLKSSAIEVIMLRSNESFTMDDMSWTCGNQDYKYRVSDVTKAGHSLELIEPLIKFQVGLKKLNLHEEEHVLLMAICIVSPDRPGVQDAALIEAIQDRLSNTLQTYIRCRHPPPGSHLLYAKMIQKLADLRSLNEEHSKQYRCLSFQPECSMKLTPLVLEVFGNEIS

Vitamin D3 receptor = target: T2, Vitamin D3 receptor (Homo sapiens, UniProt P11473); experiment: (§1) Agonist activity at vitamin D receptor (unknown origin) expressed in HEK293 cells co-expressing pCMX-RXRalpha and pCMX-beta-galactosidase assessed as induction of receptor transactivation incubated for 16 to 24 hrs by luciferase reporter gene assay
T2 sequence (P11473 whole entry): T1 sequence (whole entry)

[2] = target: T1, Vitamin D3 receptor (Homo sapiens); experiment: as §1

SMILES	Activity [1]	EC50 (Vitamin D3 receptor) [µM]	Activity [2]
CC(C)(O)CCC[C@H]1C[C@@H]2C[C@H]3[C@@H]4CCc5cc(O)ccc5[C@H]4CC[C@]3(C)[C@@]21O	Active	–	–
C[C@H](CCC(=O)O)[C@H]1CC[C@H]2[C@@H]3CC[C@@H]4CC(=O)CC[C@]4(C)[C@H]3CC[C@]12C	–	–	Active
CC(C)(O)CCC[C@@H]1C[C@@H]2C[C@H]3[C@@H]4CCc5cc(O)ccc5[C@H]4CC[C@]3(C)[C@]12O	Active	4.1	–
C[C@H](CCCC(C)(C)O)[C@H]1CC[C@H]2[C@@H]3CCc4cc(O)ccc4[C@H]3CC[C@]12C	–	0.85	–

Continued, in another order:

Activity [1]	EC50 (Vitamin D3 receptor) [µM]	SMILES	Activity [2]
Active	3.7	CC(C)(O)CCC[C@@H]1C[C@@]12CC[C@H]1[C@@H]3CCc4cc(O)ccc4[C@H]3CC[C@@]12C	–
inactive	–	C[C@]12CCC(=O)C[C@H]1CC[C@@H]1[C@@H]2CC[C@@]2(C)[C@H]1CC[C@@]21C[C@H]1CCC(=O)O	–
Active	–	CC(C)(O)CCC[C@H]1C[C@@]12CC[C@H]1[C@@H]3CCc4cc(O)ccc4[C@H]3CC[C@@]12C	–
inactive	–	C[C@]12CCC(=O)C[C@H]1CC[C@@H]1[C@@H]2CC[C@@]2(C)[C@H]1C[C@H]1C[C@H](CCC(=O)O)[C@]12O	–
inactive	–	C[C@]12CCC(=O)C[C@H]1CC[C@@H]1[C@@H]2CC[C@@]2(C)[C@H]1CC[C@@]21C[C@@H]1CCC(=O)O	–
inactive	–	C[C@]12CCC(=O)C[C@H]1CC[C@@H]1[C@@H]2CC[C@@]2(C)[C@H]1C[C@H]1C[C@@H](CCC(=O)O)[C@]12O	–
